Columns and labels:
[1] = test system: Breg and B10 cells, and CD19-positive and IL-10-positive cells; assay: Breg, B10 and CD19-positive IL-10-positive cells in LPS-stimulated hPBMC, flow cytometry; format: cell-based, human; conditions: LPS 100 ng/ml, 24 hours
Method: The immune cell regulatory effect of the combination of FK506 and the microbiomes of the present invention in hPBMC according to LPS was confirmed. Specifically, PBMCs isolated from human peripheral […] were treated with LPS at a concentration of 100 ng/ml to activate immune cells. Thereafter, FK506 alone; or a combination of FK506 and L. gasseri; L. gasseri and L. acidophilus; microbiomes and zinc; or microbiomes, zinc, vitamin B9, and vitamin B12 was treated and cultured for 24 hours. After completion of culture, cells in each group were obtained, and the expression of immune B cells Breg and B10 cells, and CD19-positive and IL-10-positive cells was confirmed using flow cytometry.

Treg = Treg expression in hPBMC under T cell stimulation conditions, flow cytometry; format: cell-based, human; conditions: anti-CD3 2 μg/ml, 24 hours, FK506 1 nM, microbiomes 10 μg/ml each, zinc 50 μM, B9+B12 20 μM
Method: (§1) It was confirmed whether the combination of FK506 and the microbiomes of the present inention regulated IL-17 and IL-10 in human peripheral blood mononuclear cells (hPBMCs) under T cell stimulation conditions. Specifically, PBMCs isolated from human peripheral blood were treated with anti-CD3 at a concentration of 2 μg/ml to activate T cells. Thereafter, the PBMCs were treated with FK506 alone (1 nM) and a combination of FK506 (1 nM) and L. gasseri (10 μg/ml); L. gasseri (10 μg/ml) and L. acidophilus (10 μg/ml); two microbiomes (each 10 μg/ml) and zinc (50 μM); or two microbiomes (each 10 μg/ml), zinc (50 μM), vitamin B9, and vitamin B12 (B9+B12 20 μM) and cultured for 24 hours. After completion of the culture, the cell culture medium was obtained, and the amounts of IL-17 and IL-10 in the culture medium were measured by ELISA.
It was confirmed whether the combination of FK506 and the microbiomes of the present invention regulated the expression of Treg reduced by treatment with the immunosuppressant. Specifically, cells in each group of Example 8-1 were obtained, and expression of Treg was confirmed by flow cytometry.

CD4+T cells = assay: Alloresponse (T cell proliferation) in allogeneic cell model, 3H thymidine incorporation; format: cell-based, mouse; conditions: allogeneic co-culture; FK506 0.3 mg/ml; microbiome 100 μg/ml in combination; FIG. 1
Method: To confirm an effect of the combination of FK506 and a microbiome of the present invention on transplantation rejection, an allogeneic cell model was used. Specifically, in a 96 well plate, 2×10^5 CD4+T cells from a normal responder (Bclb/c) per well were mixed and co-cultured with 2×10^5 splenocytes from which T cells derived from an irradiated responder (syngenic) or donor (C57BL/6, stimulator, allogeneic) were removed. During co-culture, an allogeneic model was treated with five types of Lactobacillus bacteria, Lactobacillus acidophilus (LA), L. reuteri (LRe), L. rhamnosus (LRh), L. paracasei (LPC) or L. casei (LC) alone at 1, 10, and 100 μg/ml, or administered in combination with 0.3 mg/ml of FK506. As a control group, a syngenic transplantation group (Syn group) and an allogeneic transplantation group (Allo group) were used. Thereafter, in order to confirm alloresponses in mice of each group, T cell proliferation responses (alloresponses) were confirmed in the cultured cells using a 3H thymidine incorporation method.

IL-17 and IL-10 = IL-17 and IL-10 in culture medium under allo response conditions, ELISA; format: cell-based, human; conditions: hPBMCs, 72 hours, FK506 1 nM, microbiomes 10 μg/ml each, vs Vehicle group
Method: Specifically, the proliferation of allo response T cells was confirmed for FK506 alone (1 nM) and a combination of FK506 (1 nM) and L. gasseri (10 μg/ml); L. gasseri (10 μg/ml) and L. acidophilus (10 μg/ml); two microbiomes (each 10 μg/ml) and zinc (50 μM); or two microbiomes (each 10 μg/ml), zinc (50 μM), vitamin B9, and vitamin B12 (B9+B12 20 μM). Specifically, different human peripheral blood mononuclear cells (hPBMCs) were inoculated at a ratio of 1:1 (each concentration of 1×10^5 cells) on a 96 well plate coated with a concentration of anti CD3 0.5 μg/ml, treated with the combination in hPBMCs in which allo conditions were induced, and then cultured for 72 hours. Thereafter, 10 μl of CCK8 was treated to each well and reacted for 4 hours, and then the cell proliferation response was measured by absorbance at 450 nm. As a control group, a Vehicle group in which the active ingredient was replaced with a solvent was used.
It was confirmed whether the combination of FK506 and the microbiome of the present invention regulated the expression of inflammation-related factors under allo response conditions. Specifically, a culture medium of each cell cultured in Example 7-1 was obtained, and the amounts of IL-17 as an inflammatory factor and IL-10 as an inflammation regulator in the culture medium were analyzed by ELISA.

IL-17, IL-10, and IFN-γ = assay: IL-17, IL-10 and IFN-γ in hPBMC under T cell stimulation conditions (anti-CD3), ELISA; format: cell-based, human; conditions: anti-CD3 2 μg/ml, 24 hours, FK506 1 nM, microbiomes 10 μg/ml each
Method: as §1

[2] = test system: acute graft-versus-host disease (aGVHD); assay: Disease activity, body weight and probability of survival in acute graft-versus-host disease animal model; format: in vivo, mouse; conditions: aGVHD mice, FK506 5 mg/kg, microbiome 400 mg/kg, oral once daily 4 weeks
Method: Specifically, in order to fabricate an aGVHD model, a responder mouse Balb/c (H-2k/d) was subjected to total body irradiation (TBI) of 690 cGy, bone marrow stem cells and splenocytes were isolated from the femur and tibia of a donor mouse C57BL/6 (H-2k/b), and then 5×10^6 bone marrow (BM) stem cells and 5×10^6 splenocytes were transplanted into the responder mouse Balb/c (H-2k/d). Thereafter, after the occurrence of aGVHD, 5 mg/kg of FK506 and 400 mg/kg each of Lactobacillus rhamnosus (LR) or Lactobacillus paracasei (LP) were administered orally once daily for 4 weeks. Disease activity, body weight, and probability of survival of mice in each group were measured once a week to confirm whether the disease activity was suppressed (FIG. 5). As control groups, a syngenic (syn) group transplanted with syngenic cells; a vehicle group, in which aGVHD was induced and saline was injected; and groups administered with FK506, Lactobacillus rhamnosus, and Lactobacillus paracasei alone were used.

## C=CC[C@@H]1/C=C(\C)C[C@H](C)C[C@H](OC)[C@H]2O[C@@](O)(C(=O)C(=O)N3CCCC[C@H]3C(=O)O[C@H](/C(C)=C/[C@@H]3CC[C@@H](O)[C@H](OC)C3)[C@H](C)[C@@H](O)CC1=O)[C@H](C)C[C@@H]2OC.O [FK506, Tacrolimus]
[1]
  expression of B10: decreased
[1]; vs Vehicle group
  expression of Breg: significantly decreased
Treg
  expression of Treg: significantly decreased
CD4+T cells
  T cell proliferation (alloresponse): suppressed
IL-17 and IL-10
  expression of IL-10 in the culture medium: significantly decreased
IL-17, IL-10, and IFN-γ; vs Vehicle group
  amount of IFN-γ: significantly decreased
IL-17, IL-10, and IFN-γ; zinc 50 μM, B9+B12 20 μM
  amount of IL-10: not expressed
[2]; at the end of the experiment
  probability of survival: 60%
[2]; compared to the vehicle group
  body weight: increased
  disease activity: decreased
